{"source": "patent US11542273B2", "about": "“Amide compound having bet proteolysis-inducing action and medicinal application thereof” (MITSUBISHI TANABE PHARMA CORPORATION, priority 2018, dated 2023)", "key": {"BRD4 bromodomain 1": {"target": "BRD4 bromodomain 1 (Homo sapiens (Human), UniProt O60885)", "experiment": "Inhibitory action on binding of BRD4 protein and ligand, Test Method 1 (TR-FRET, BRD4 bromodomain 1 TR-FRET Assay Kit)", "settings": "Test Method 1, BRD4 bromodomain 1 and ligand", "experimental": "The inhibitory action of the compound of the present invention on the binding of BRD4 protein and a ligand thereof was evaluated by the time-resolved fluorescence resonance energy transfer (TR-FRET) method using BRD4 bromodomain 1 TR-FRET Assay Kit (Cayman). In this experiment, (+)-JQ1 known to have an inhibitory activity on the binding of BRD4 protein and a ligand therefor was used as a positive control drug. A test compound dissolved in DMSO was diluted with TR-FRET Assay Buffer, added to a 384 well black plate, BRD4 bromodomain 1 Europium Chelete was further added and the cells were incubated at room temperature for 15 min. Thereafter, BRD4 bromodomain 1 Ligand/APC Acceptor Mixture was added and the cells were incubated at room temperature for 1 hr. The binding amount of the BRD4 protein and ligand was measured as fluorescence intensity (excitation: 340 nm/emission: 620 nm and excitation: 340 nm/emission: 670 nm).\nIt was calculated from the straight line connecting the degradation rate at two points enclosing the 50% fluorescence intensity and the compound concentration."}, "BRD4 protein": {"target": "BRD4 protein (Homo sapiens (Human), UniProt O60885)", "experiment": "BRD4 protein degradation inducing action in cancer cells (immunofluorescence, Operetta)", "type": "cell-based", "settings": "LNCaP cells, 6 hr treatment, fluorescence intensity", "procedure,_shortened": "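LNCaP prostate cancer cells in 10% FBS/RPMI1640 were exposed to compound for 6 hr at 37° C, then fixed, permeabilized and immunostained for BRD4 with Alexa Fluor 488 or 546 secondary antibodies plus Hoechst nuclear stain. Fluorescence was read by high-content imaging; DC50 is the concentration giving 50% of untreated signal, interpolated linearly between bracketing points.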"}, "[1]": {"test_system": "human glioma U-87 MG cell", "experiment": "Cytotoxic action on cancer cells (WST-8, 96 hr)", "type": "cell-based", "settings": "U-87 MG cells, 96 hr culture", "procedure,_shortened": "(§1)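 Viable cell number, measured by WST-8, is compared with compound-free cultures after treatment. Cells are kept in 10% FBS/RPMI1640 at 37° C under 5% CO2, and IC50 comes from the line joining the two survival rates that bracket 50%.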"}, "[2]": {"test_system": "human uterine sarcoma MES-SA cell", "experiment": "Cytotoxic action on cancer cells (WST-8, 96 hr)", "type": "cell-based", "settings": "96 hr culture", "procedure,_shortened": "as §1"}, "[3]": {"test_system": "human large cell lung cancer NCI-H460 cell", "experiment": "Cytotoxic action on cancer cells (WST-8, 96 hr)", "type": "cell-based", "settings": "96 hr culture", "procedure,_shortened": "as §1"}, "[4]": {"test_system": "human liver cancer Hep G2 cell", "experiment": "Cytotoxic action on cancer cells (WST-8, 96 hr)", "type": "cell-based", "settings": "HepG2, 96 hr culture", "procedure,_shortened": "as §1"}, "[5]": {"test_system": "human bladder cancer 5637 cell", "experiment": "Cytotoxic action on cancer cells (WST-8, 96 hr)", "type": "cell-based", "settings": "5637 cells, 96 hr culture", "procedure,_shortened": "as §1"}, "[6]": {"test_system": "human T-cell leukemia Jurkat cells", "experiment": "Cytotoxic action on cancer cells (WST-8, 96 hr)", "type": "cell-based", "settings": "96 hr culture", "procedure,_shortened": "as §1"}, "[7]": {"test_system": "human Burkitt lymphoma Raji cell", "experiment": "Cytotoxic action on cancer cells (WST-8, 96 hr)", "type": "cell-based", "settings": "96 hr culture", "procedure,_shortened": "as §1"}, "[8]": {"test_system": "human small cell lung cancer NCI-H82 cell", "experiment": "Cytotoxic action on cancer cells (WST-8, 96 hr)", "type": "cell-based", "settings": "96 hr culture", "procedure,_shortened": "as §1"}, "[9]": {"test_system": "human multiple myeloma MM.1S cell", "experiment": "Cytotoxic action on cancer cells (WST-8, 96 hr)", "type": "cell-based", "settings": "MM1.S, MM.1S cells, 96 hr culture", "procedure,_shortened": "as §1"}, "[10]": {"test_system": "human breast cancer ZR-75-1 cell", "experiment": "Cytotoxic action on cancer cells (WST-8, 96 hr)", "type": "cell-based", "settings": "ZR-75-1 cells, 96 hr culture", "procedure,_shortened": "as §1"}, "[11]": {"test_system": "human non-small cell lung cancer NCI-H1975 cell", "experiment": "Cytotoxic action on cancer cells (WST-8, 96 hr)", "type": "cell-based", "settings": "96 hr culture", "procedure,_shortened": "as §1"}, "[12]": {"test_system": "human diffuse large B-cell lymphoma SU-DHL-6 cell", "experiment": "Cytotoxic action on cancer cells (WST-8, 96 hr)", "type": "cell-based", "settings": "SU-DHL-6 cells, 96 hr culture", "procedure,_shortened": "as §1"}, "[13]": {"test_system": "human gastric cancer SNU-16 cell", "experiment": "Cytotoxic action on cancer cells (WST-8, 96 hr)", "type": "cell-based", "settings": "SNU-16 cells, 96 hr culture", "procedure,_shortened": "as §1"}, "[14]": {"test_system": "human prostate cancer LNCaP cells", "experiment": "Cytotoxic action on cancer cells (WST-8, 96 hr)", "type": "cell-based", "settings": "read-out: LNCaP cytotoxic activity: IC50", "procedure,_shortened": "as §1"}, "[15]": {"test_system": "human pancreatic cancer AsPC-1 cell", "experiment": "Cytotoxic action on cancer cells (WST-8, 96 hr)", "type": "cell-based", "settings": "ASPC1, AsPC-1 cells, 96 hr culture", "procedure,_shortened": "as §1"}, "[16]": {"test_system": "human triple negative breast cancer MDA-MB-231 cell", "experiment": "Cytotoxic action on cancer cells (WST-8, 96 hr)", "type": "cell-based", "settings": "MDA-MB-231 cells, 96 hr culture", "procedure,_shortened": "as §1"}, "[17]": {"test_system": "human chronic myeloid leukemia K562 cell", "experiment": "Cytotoxic action on cancer cells (WST-8, 96 hr)", "type": "cell-based", "settings": "96 hr culture", "procedure,_shortened": "as §1"}, "[18]": {"test_system": "human colorectal cancer HCT116 cell", "experiment": "Cytotoxic action on cancer cells (WST-8, 96 hr)", "type": "cell-based", "settings": "HCT-116, 96 hr culture", "procedure,_shortened": "as §1"}, "[19]": {"test_system": "human ovarian cancer A2780 cell", "experiment": "Cytotoxic action on cancer cells (WST-8, 96 hr)", "type": "cell-based", "settings": "96 hr culture", "procedure,_shortened": "as §1"}, "[20]": {"test_system": "human acute myeloid leukemia MV-4-11 cell", "experiment": "Cytotoxic action on cancer cells (WST-8, 96 hr)", "type": "cell-based", "settings": "MV4-11, MV-4-11 cells, 96 hr culture", "procedure,_shortened": "as §1"}, "[21]": {"test_system": "human castration-resistant prostate cancer PC-3 cell", "experiment": "Cytotoxic action on cancer cells (WST-8, 96 hr)", "type": "cell-based", "settings": "PC-3 cells (printed P0-3 in table), 96 hr culture", "procedure,_shortened": "as §1"}, "BRD4-1 (GST)": {"target": "BRD4-1 (GST) (Homo sapiens (Human), UniProt O60885)", "experiment": "Inhibitory action on binding of BRD4 protein and acetylated histone H4, Test Method 2 (TR-FRET)", "settings": "Test Method 2, BRD4-1 (GST) and acetylated histone H4, TR-FRET", "experimental": "The inhibitory action of the compound of the present invention on the binding of BRD4 protein and a ligand thereof (acetylated histone H4) was evaluated by the time-resolved fluorescence resonance energy transfer (TR-FRET) method using EPIgeneous™ Binding Domain Kit A (Cisbio), BRD4-1 (GST) (Reaction Biology Corp) and [Lys(Ac)5/8/12/16]-Histone H4(1-21)-GGK (Biotin) (Eurogentec). In this experiment, (+)-JQ1 known to have an inhibitory activity on the binding of BRD4 protein and acetylated histone H4 therefor was used as a positive control drug. A test compound dissolved DMSO was diluted with attached Diluent Buffer, added to a 384 well white plate, and BRD4-1 (GST) and [Lys(Ac)5/8/12/16]-Histone H4(1-21)-GGK (Biotin) were further added. Thereafter, Streptavidin-d2 conjugate and Anti-GST-Eu^3+ Cryptate Conjugate were added and the cells were incubated at room temperature for 3 hr. The binding amount of the BRD4 protein and acetylated histone H4 was measured as the fluorescence intensity (excitation: 314 nm/emission: 620 nm and excitation: 314 nm/emission: 665 nm). […] It was calculated from the straight line connecting the degradation rate at two points enclosing the 50% fluorescence intensity and the compound concentration."}}, "note": "Like-named read-outs stand apart in the source and are kept apart here."}
{"compound": "COC(=O)C[C@@H]1N=C(c2ccc(-c3ccc(OCCOCC(=O)N[C@H](C(=O)N4C[C@H](O)C[C@H]4C(=O)N[C@@H](C)c4ccc(-c5scnc5C)cc4)C(C)(C)C)c(C#N)c3)cc2)c2c(sc(C)c2C)-n2c(C)nnc21", "note": "[Example 8, methyl [(6S)-4-(3′-cyano-4′-{2-[2-({(2S)-1-[(2S,4R)-4-hydroxy-2-({(1S)-1-[4-(4-methyl-1,3-thiazol-5-yl)phenyl]ethyl}carbamoyl)pyrrolidin-1-yl]-3,3-dimethyl-1-oxobutan-2-yl}amino)-2-oxoethoxy]ethoxy}[1,1′-biphenyl]-4-yl)-2,3,9-trimethyl-6H-thieno[3,2-f][1,2,4]triazolo[4,3-a][1,4]diazepin-6-yl]acetate]", "values": [{"measurement": "IC50", "setting": "BRD4 bromodomain 1", "result": 82, "unit": "nM"}, {"measurement": "DC50", "setting": "BRD4 protein", "result": 0.41, "unit": "nM"}, {"measurement": "IC50", "setting": "[1]", "result": 25, "unit": "nM"}, {"measurement": "IC50", "setting": "[2]", "result": 21, "unit": "nM"}, {"measurement": "IC50", "setting": "[3]", "result": 75, "unit": "nM"}, {"measurement": "IC50", "setting": "[4]", "result": 48, "unit": "nM"}, {"measurement": "IC50", "setting": "[5]", "result": 2.1, "unit": "nM"}, {"measurement": "IC50", "setting": "[6]", "result": 4.3, "unit": "nM"}, {"measurement": "IC50", "setting": "[7]", "result": 5.7, "unit": "nM"}, {"measurement": "IC50", "setting": "[8]", "result": 35, "unit": "nM"}, {"measurement": "IC50", "setting": "[9]", "result": 0.24, "unit": "nM"}, {"measurement": "IC50", "setting": "[10]", "result": 4.2, "unit": "nM"}, {"measurement": "IC50", "setting": "[11]", "result": 20, "unit": "nM"}, {"measurement": "IC50", "setting": "[12]", "result": 2.1, "unit": "nM"}, {"measurement": "IC50", "setting": "[13]", "result": 17, "unit": "nM"}, {"measurement": "IC50", "setting": "[14]; Homo sapiens, LNCaP, 96 h", "result": 0.68, "unit": "nM"}, {"measurement": "IC50", "setting": "[15]", "result": 81, "unit": "nM"}, {"measurement": "IC50", "setting": "[16]", "result": 14, "unit": "nM"}, {"measurement": "IC50", "setting": "[17]", "result": 5.2, "unit": "nM"}, {"measurement": "IC50", "setting": "[18]", "result": 37, "unit": "nM"}, {"measurement": "IC50", "setting": "[19]", "result": 0.36, "unit": "nM"}, {"measurement": "IC50", "setting": "[20]", "result": 0.15, "unit": "nM"}, {"measurement": "IC50", "setting": "[21]", "result": 2.5, "unit": "nM"}]}
{"compound": "(+)-JQ1 [reference compound]", "values": [{"measurement": "IC50", "setting": "BRD4-1 (GST)", "result": 550, "unit": "nM"}, {"measurement": "IC50", "setting": "BRD4 bromodomain 1", "result": 7400, "unit": "nM"}, {"measurement": "IC50", "setting": "[14]; LNCaP cells, 96 hr culture, WST-8", "result": 19000, "unit": "nM"}]}
